Test results as given in US7696339B2, “Nucleic acid encoding monkey QRFP” (Banyu Pharmaceutical Co., Ltd., priority 2004, dated 2010).
Square brackets hold non-standard residues; d marks the D form. pGlu = O=C1CC[C@@H](C(=O)O)N1

Tests used:
Assay type in all cases: cell-based
[1] = system: CHO cells transfected with the mock vector; assay: Intracellular calcium ion concentration change in CHO cells transfected with the mock vector
Procedure: (§1) CHO cells were transfected with pEF1/V5-HisB plasmid vector carrying the monkey GPR103 gene or human GPR103 gene obtained in Example 1 and the same vector without the insert (mock), and Geneticin (Invitrogen Corp.) was added to the medium to a final concentration of 2 mg/ml for selection of expressing cells. Next, the monkey or human GPR103 gene-expressing cells were singly cloned by the limiting dilution method and supplied for the following test. The monkey QRFP43 and QRFP26 synthesized by the method described in Example 6 were also supplied for the test.
(§2) After 24 hours of culturing, the cells were seeded in a 96-well poly-D-lysine coated black culture plate (Becton Dickinson) at 2.5×10^4 cells/well and cultured for two nights. […] Different concentrations of monkey QRFP43 or QRFP26 dissolved in the assay buffer were also set in the FLIPR, and then a sample was added to the cells and the change in intracellular calcium ion concentration-dependent fluorescence produced by irradiation with exciting light was measured.
(§3) Defining the change in fluorescence as the difference between the fluorescence immediately before addition of monkey QRFP43 or QRFP26 and the maximum value after addition, a Prism Version 4.00 (GraphPad) was used to graph the change in fluorescence due to each concentration of peptide (protein), and the 50% effective concentration was determined.

human GPR103 = target: T1, human GPR103 (Homo sapiens, UniProt Q96P65); assay: Intracellular calcium ion concentration increasing activity (FLIPR) in human GPR103 gene-expressing CHO cells; settings: Fluo4, read-out: 50% effective concentration, intracellular calcium ion concentration increasing activity
T1 construct: expressed in transfected cells; host or cells: CHO cells, Geneticin-selected, single clone by limiting dilution
T1 sequence (Q96P65 1-431): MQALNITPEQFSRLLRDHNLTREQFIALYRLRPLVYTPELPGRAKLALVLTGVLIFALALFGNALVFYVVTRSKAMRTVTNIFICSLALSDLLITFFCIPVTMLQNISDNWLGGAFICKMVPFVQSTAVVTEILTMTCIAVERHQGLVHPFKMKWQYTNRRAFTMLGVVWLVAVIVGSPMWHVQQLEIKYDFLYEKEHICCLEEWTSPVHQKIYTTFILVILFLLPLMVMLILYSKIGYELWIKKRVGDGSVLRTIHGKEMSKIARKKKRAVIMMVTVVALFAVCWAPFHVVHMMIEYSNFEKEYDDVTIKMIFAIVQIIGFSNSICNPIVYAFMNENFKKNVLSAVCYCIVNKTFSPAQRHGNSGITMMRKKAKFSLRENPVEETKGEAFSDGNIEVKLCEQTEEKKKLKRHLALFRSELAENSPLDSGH
Procedure: as §1, §2, §3

monkey GPR103 = assay: Intracellular calcium ion concentration increasing activity (FLIPR) in monkey GPR103 gene-expressing CHO cells; settings: Fluo4, read-out: 50% effective concentration, intracellular calcium ion concentration increasing activity
Procedure: as §1, §2, §3

Row | EC50 (human GPR103) | EC50 (monkey GPR103) | Substance | change in intracellular calcium ion concentration [1]
1 | 0.058 µM | 0.069 µM | [pGlu]DEGSEADDFLPAGGVKASGPLGNLAEELNGYSRKKGGFSFRF-NH2 [monkey QRFP43] | no change
2 | 0.0017 µM | 0.0092 µM | H-ASGPLGNLAEELNGYSRKKGGFSFRF-NH2 [monkey QRFP26] | no change
